The values that follow come from patent publication US20100029554A1, “Composition and Methods for Treatment of Congestive Heart Failure” (Amylin Pharmaceuticals, Inc., priority 2006, published 2010).

A short description of data set [1]: Plasma stability. It is filed as in vitro ADME. To be noted: 20 μg/mL in plasma, 37° C., 0-5 hours. The protocol:
To assess stability, the compound of interest is spiked into plasma at a concentration of 20 μg/mL. It is incubated at 37° C. for 0, 1, 2 3, 4, 5 hours in triplicate. At each time point, MeOH is added to a 96 well microtiter plate and then sample is added in a ratio of 1 part sample to 4 parts MeOH to quench the digestion reaction. Samples are mixed with multi-channel pipette or liquid handler. The plate is then centrifuged for 10 minutes and placed in an autosampler kept at 10° C. Samples are then injected into a mass spectrometer (API 3000, Applied Biosystems) equipped with an autosampler (Leap HTC Pal) and HPLC pumps (Shimadzu LC-10ADVP).

The test system of data set [2] is NH/Swiss mice. Put plainly: Glucose lowering assay. It is filed as in vivo, mouse. The conditions noted are these: IP, 2 nmol/kg, change in blood glucose relative to vehicle. As for the experimental part: Female NH/Swiss mice (˜8-20 weeks of age), (Harlan, Indianapolis, Ind., USA), housed 3 mice per cage, are allowed ad libitum access to food and water until the start of the experiment. At two hours prior to treatment, access to food is restricted.
At the time of treatment, the tip of the tail is pricked with a needle to obtain 1 μl blood as a “pre-treatment” control blood sample. Immediately thereafter, each mouse is injected intraperitoneally (IP) with a test sample (1 nmol/kg or 2 nmol/kg) or 200 μl vehicle (10% DMSO saline). Additional blood samples are collected at 30, 60, 120, 180, and 240 minutes after injection.
Blood glucose is measured with a glucose oxidase biosensor (OneTouch® Ultra® (LifeScan, Inc., a Johnson & Johnson Company, Milpitas, Calif.)). At each time point, the effect of the test sample is expressed as the percent change in blood glucose relative to mice injected with vehicle only. Test samples and vehicle controls are also compared to their respective “pre-treatment” controls.
Significant test sample effects are identified by ANOVA (p<0.05). Where a significant difference existed, test means are compared to the control mean with Dunnett's post test using GraphPad Prism version 4.00 for Windows, GraphPad Software, San Diego Calif. USA, www.graphpad.com).

Structures are written as SMILES.

Consider `CC[C@H](C)[C@H](NC(=O)[C@H](Cc1ccccc1)NC(=O)[C@H](CC(C)C)NC(=O)[C@H](CCCNC(=N)N)NC(=O)[C@H](C)NC(=O)[C@H](C)NC(=O)[C@H](CCC(=O)O)NC(=O)[C@H](CCC(=O)O)NC(=O)[C@H](CCC(=O)O)NC(=O)[C@H](CC(C)C)NC(=O)[C@H](Cc1ccc(O)cc1)NC(=O)[C@H](CO)NC(=O)[C@H](CO)NC(=O)[C@@H](NC(=O)[C@H](CC(=O)O)NC(=O)[C@H](CC(N)=O)NC(=O)[C@@H](NC(=O)[C@H](Cc1ccc(O)cc1)NC(=O)[C@@H](NC(=O)CNC(=O)[C@H](CCC(=O)O)NC(=O)CNC(=O)[C@@H](N)Cc1c[nH]cn1)[C@@H](C)O)[C@@H](C)O)C(C)C)C(=O)N[C@@H](CCC(=O)O)C(=O)N[C@@H](Cc1c[nH]c2ccccc12)C(=O)N[C@@H](CC(C)C)C(=O)N[C@@H](CCCCN)C(=O)N[C@@H](CCC(N)=O)C(=O)NCC(=O)NCC(=O)N1CCC[C@H]1C(=O)N[C@@H](CO)C(=O)N[C@@H](CO)C(=O)NCC(=O)N[C@@H](C)C(=O)N1CCC[C@H]1C(=O)N1CCC[C@H]1C(=O)N1CCC[C@H]1C(=O)N[C@@H](CO)C(N)=O` [Cmpd 5182], for which the “plasma stability as compared to native GLP-1” value in data set [1] is “increased plasma stability”; in data set [1] (second, narrower list of b152), “increased plasma stability”. Moreover, the “GLU LOWERING AUC240 @2 nmol/kg” value in data set [2] is recorded as −16%.

Turning to `CC[C@H](C)[C@H](NC(=O)[C@H](Cc1ccccc1)NC(=O)[C@H](CC(C)C)NC(=O)[C@H](CCCNC(=N)N)NC(=O)[C@@H](NC(=O)[C@H](C)NC(=O)[C@H](CCC(=O)O)NC(=O)[C@H](CCC(=O)O)NC(=O)[C@H](CCC(=O)O)NC(=O)[C@H](CC(C)C)NC(=O)[C@H](Cc1ccc(O)cc1)NC(=O)[C@H](CCC(=O)O)NC(=O)[C@@H](NC(=O)[C@@H](NC(=O)[C@H](CC(=O)O)NC(=O)[C@H](CC(N)=O)NC(=O)[C@@H](NC(=O)[C@H](Cc1ccc(O)cc1)NC(=O)[C@@H](NC(=O)CNC(=O)[C@H](CCC(=O)O)NC(=O)CNC(=O)[C@@H](N)Cc1c[nH]cn1)[C@@H](C)O)[C@@H](C)O)C(C)C)[C@@H](C)O)C(C)C)C(=O)N[C@@H](CCC(=O)O)C(=O)N[C@@H](Cc1c[nH]c2ccccc12)C(=O)N[C@@H](CC(C)C)C(=O)N[C@@H](CCCCN)C(=O)N[C@@H](CC(N)=O)C(=O)NCC(=O)NCC(=O)N1CCC[C@H]1C(=O)N[C@@H](CO)C(=O)N[C@@H](CO)C(=O)NCC(=O)N[C@@H](C)C(=O)N1CCC[C@H]1C(=O)N1CCC[C@H]1C(=O)N1CCC[C@H]1C(=O)N[C@@H](CO)C(N)=O` [Cmpd 5271], the “plasma stability as compared to native GLP-1” value in data set [1] is recorded as “increased plasma stability”. Moreover, the “GLU LOWERING AUC240 @2 nmol/kg” value in data set [2] is listed as −17%.
